Values joined by “and” are separate entries in the source; they are usually repeats but may differ in a detail not shown here. Equal entries are not always repeated. Where two headings read alike, the source gives them in different places.
What was measured:
[1] = tested on: HIV; assay: Anti-HIV activity in MT-2; format: cell-based
From the text: (§1) Obviously, there is a structure activity relationship with respect to the efficacy of the compounds of the present invention. Factors that affect the relationship may include steric effects, electronic effects, (electron withdrawing or electron donating ability), resonance effects, hydrophobic,hydrophilic, hydrogen bonding parameters, etc. […] Based on the data, it has been determined that there is a direct correlation between the log (EC50)^-1 and the electronic effect of a substituent (a) or more precisely the sum of the sigma (σ) values. (The greater the electron withdrawing ability of a substituent, the higher the value of σ, while a better electron donating group has a lower value of σ.) There appears to be a direct correlation between log (EC50)^-1 and the Σσ; as the Σσ increases, so does the log (EC50)^-1. The addition of substituents to the diphenyl sulfone will affect the factors discussed hereinabove, thus both the log (EC50)^-1 and the Σσ will be affected. Thus for the diphenyl sulfone derivative [drawing 25] the relation is […]

[2] = tested on: HIV-1; assay: XTT assay of protection from HIV-1 cytopathic effect, infected, CEM-IW; format: cell-based, Human Immunodeficiency Virus
Procedure: (§2) Another assay for testing the efficacy of the compounds is the procedure* used in the National Cancer Institute's test for agents active against Human Immunodeficiency Virus (HIV). It is designed to detect agents acting at any stage of the virus reproductive cycle. The assay basically involves the killing of T4 lymphocytes by HIV. Small amounts of HIV are added to cells, and a complete cycle of virus reproduction is necessary to obtain the required cell killing. Agents that interact with virions, cells, or virus gene-products to interfere with viral activities will protect cells from cytolysis. The system is automated in several features to accommodate large numbers of candidate agents and is generally designed to detect anti-HIV activity. However, compounds that degenerate, or are rapidly metabolized in the culture conditions may not show activity in this screen. All tests are compared with at least one positive (e.g., AZT-treated) control done at the same time under identical conditions.
(§3) * Weislow. O. W., Kiser, R., Fine, D., Bader, J., Shoemaker, R. H., Boyd, M. R.: New soluble-formazan assay for HIV-1 cytopathic effects: application to high-flux screening of synthetic and natural products for AIDS-antiviral activity. J. Natl. Cancer Inst. 81:577-586, 1989.
(§4) 1. The Candidate agent is dissolved in dimethyl sulfoxide (unless otherwise instructed) then diluted 1:100 in cell culture medium before preparing serial half-log10 dilutions. T4 lymphocytes (CEM cell line) are added and after a brief interval HIV-1 added, resulting in a 1:200 final dilution of the compound. Uninfected cells with the compound serve as a toxicity control, and infected and uninfected cells without compound serve as basic controls.
(§5) 2. Cultures are incubated at 37° in a 5% carbon dioxide atmosphere for 6 days.
(§6) 3. The tetrazolium salt, XTT, is added to all wells, and cultures are incubated to allow formazan color development by viable cells.
(§7) 4. Individual wells are analyzed spectrophotometrically to quantitate formazan production, and in addition are viewed microscopically for detection of viable cells and confirmation of protective activity.
(§8) 5. Drug-treated virus-infected cells are compared with drug-treated noninfected cells and with other appropriate controls (untreated infected and untreated noninfected: cells, drug-containing wells without cells, etc.) on the same plate.
(§9) 6. Data are reviewed in comparison with other tests done at the same time and a determination about activity is made.

[3] = tested on: HIV; assay: Anti-HIV assays (summary statements, structure-activity trends); format: cell-based
From the text: as §1

[4] = tested on: CEM-IW; assay: XTT toxicity control, uninfected, CEM-IW; format: cell-based
Procedure: as §2, §3, §4, §5, §6, §7, §8, §9

[5] = XTT toxicity control, uninfected, CEM-IW; format: cell-based; details: human, cem-iw cells, read-out: Uninfected response
Procedure: as §2, §3, §4, §5, §6, §7, §8, §9

[6] = Human immunodeficiency virus 1, read-out: MT-2 EC50, M
[7] = Human immunodeficiency virus 1, MT-2, summary table, read-out: MT-2 EC50
[8] = Human immunodeficiency virus 1, CEM-IW, summary table, read-out: CEM-IW EC50

O=S(=O)(c1ccccc1)c1ccccc1 [Compound 3, diphenyl sulfone] gave an EC50 [1, 6] of 77.5 µM.

With O=[N+]([O-])c1ccccc1S(=O)(=O)c1ccc(Cl)cc1 [Compound 4, 1-(4-chlorophenylsulfonyl)-2-nitrobenzene] the EC50 [1, 7] was 38.2 µM and the EC50 [2, 8] was 42.9 µM.

With [O-][S+](c1ccccc1)c1ccccc1 [H H H H SO] the EC50 [1, 6] was 358 µM.

In the case of O=[N+]([O-])c1ccccc1S(=O)(=O)c1ccccc1[N+](=O)[O-] [Compound 6, 2,2'-dinitrodiphenyl sulfone], the “anti-HIV activity (in words)” value [3] is reported as “increased potency”, the Uninfected response ([4]; 1.45 × 10^-4 Molar, 145 µM) is reported as 109.82% of Control and 97.75% of Control and 89.72% of Control and 104.62% of Control and the Uninfected response ([4]; 1.45 × 10^-5 Molar, 14.5 µM) is reported as 97.21% of Control and 84.55% of Control and 104.22% of Control. For the same compound, the Uninfected response ([4]; 1.45 × 10^-6 Molar, 1.45 µM) was 93.92% of Control and 100.12% of Control and 105.53% of Control, the Uninfected response ([4]; 1.45 × 10^-7 Molar, 0.145 µM) was 80.72% of Control and 98.46% of Control and 109.08% of Control and 105.53% of Control and the Uninfected response ([4]; 4.58 × 10^-5 Molar, 45.8 µM) was 100.68% of Control and 106.72% of Control and 80.53% of Control and 105.99% of Control. For the same compound, the Uninfected response ([4]; 4.59 × 10^-6 Molar, 4.59 µM) was 96.62% of Control and 82.26% of Control and 98.81% of Control, the Uninfected response ([4]; 4.60 × 10^-7 Molar, 0.46 µM) was 74.84% of Control and 97.86% of Control and 88.80% of Control and 107.87% of Control and the Uninfected response ([4]; 4.60 × 10^-8 Molar, 0.046 µM) was 88.77% of Control and 104.88% of Control and 105.92% of Control and 111.46% of Control. For the same compound, the IC50 ([4]; uninfected (toxicity)) was > 145 µM, the viability at 14.5 µM ([5]; 1.45 × 10^-5 Molar) was 92.5% and the viability at 1.45 µM ([5]; 1.45 × 10^-6 Molar) was 87.1%. The viability at 4.59 µM ([5]; 4.59 × 10^-6 Molar) was 90%, the EC50 [1, 6] was 0.747 µM and the Conclusion ([2]; CEM-IW) was “ACTIVE”. For the same compound, the “TI50 (IC/EC)” value ([2]; CEM-IW) was > 2.05 × 10^+2 and > 1.75 × 10^+2 and > 1.27 × 10^+2 and > 1.62 × 10^+2, the Infected response ([2]; CEM-IW, 1.45 × 10^-4 Molar, 145 µM) was 94.22% of Control and 83.35% of Control and 80.76% of Control and the Infected response ([2]; CEM-IW, 1.45 × 10^-5 Molar, 14.5 µM) was 100.31% of Control and 95.03% of Control and 82.49% of Control and 79.91% of Control. The Infected response ([2]; CEM-IW, 1.45 × 10^-6 Molar, 1.45 µM) was 86.23% of Control and 82.50% of Control and 62.75% of Control and 68.40% of Control, the Infected response ([2]; CEM-IW, 4.58 × 10^-5 Molar, 45.8 µM) was 95.59% of Control and 83.75% of Control and 82.81% of Control and the Infected response ([2]; CEM-IW, 4.59 × 10^-6 Molar, 4.59 µM) was 92.81% of Control and 84.87% of Control and 80.73% of Control. For the same compound, the Infected response ([2]; CEM-IW, 4.60 × 10^-7 Molar, 0.46 µM) was 29.70% of Control and 24.44% of Control and 37.65% of Control, the EC50 ([2]; CEM-IW, infected, read-out: EC50) was 0.829 µM and 1.14 µM and 0.892 µM and the viability at 145 µM ([2]; Human immunodeficiency virus 1, CEM-IW, 1.45 × 10^-4 Molar, read-out: Infected response) was 97.4%. It also gave a viability at 45.8 µM ([2]; Human immunodeficiency virus 1, CEM-IW, 4.58 × 10^-5 Molar, read-out: Infected response) of 99%, a viability at 4.59 µM ([2]; Human immunodeficiency virus 1, CEM-IW, 4.59 × 10^-6 Molar, read-out: Infected response) of 94% and a viability at 0.46 µM ([2]; Human immunodeficiency virus 1, CEM-IW, 4.60 × 10^-7 Molar, read-out: Infected response) of 42%. The EC50 ([2]; Human immunodeficiency virus 1, CEM-IW, infected, read-out: EC50) was 0.706 µM and the EC50 ([2]; Human immunodeficiency virus 1, read-out: CEM-IW EC50, M, CEM-IW, summary table) was 5.44 µM.

In the case of O=S(=O)(c1ccccc1)c1ccccn1 [Compound 7, phenyl 2-pyridyl sulfone], the “anti-HIV activity (in words)” value [3] is reported as “shows anti-HIV activity”, the EC50 [1, 7] is reported as 75.7 µM and the EC50 [2, 8] is reported as 206 µM.

In the case of O=[N+]([O-])c1ccccc1Sc1ccccc1[N+](=O)[O-] [Compound 5], the EC50 [1, 6] is reported as 5.77 µM and the EC50 [2, 8] is reported as 7.87 µM.

From patent US5679695A, “Aryl and heteroaryl compounds having anti-retrovirus activity” (The University of Connecticut, priority 1995, dated 1997)
